The record followed here is US8697732B2, “Pyridine derivatives” (Actelion Pharmaceuticals Ltd., priority 2006, dated 2014).

In one experiment the test system is circulating lymphocytes. The experiment is described as follows: Assessment of in vivo efficacy: circulating lymphocytes after oral administration. The conditions noted are these: 6 h after oral administration of 10 mg/kg to normotensive male Wistar rats, as compared to vehicle-only group. On the procedure:
The efficacy of the compounds of Formula (I) is assessed by measuring the circulating lymphocytes after oral administration of 3 to 30 mg/kg of a compound of Formula (I) to normotensive male Wistar rats. The animals are housed in climate-controlled conditions with a 12 h-light/dark cycle, and have free access to normal rat chow and drinking water. Blood is collected before and 3, 6 and 24 h after drug administration. Full blood is subjected to hematology using Advia Hematology system (Bayer Diagnostics, Zurich, Switzerland).
All data are presented as mean±SEM. Statistical analyses are performed by analysis of variance (ANOVA) using Statistica (StatSoft) and the Student-Newman-Keuls procedure for multiple comparisons. The null hypothesis is rejected when p<0.05.

Experiment [1] concerns the target recombinant human S1P1 receptor (Homo sapiens, UniProt P21453). The experiment is described as follows: GTPγS assay to determine EC50 values. Type of experiment: biochemical. The conditions noted are these: 35S-GTPγS binding, membrane preparations of CHO cells expressing recombinant human S1P1 receptor. On the procedure:
GTPγS binding assays are performed in 96 well microtiter plates (Nunc, 442587) in a final volume of 200 μl, using membrane preparations of CHO cells expressing recombinant human S1P1 receptor. Assay conditions are 20 mM Hepes (Fluka, 54461), 100 mM NaCl (Fluka, 71378), 5 mM MgCl2 (Fluka, 63064), 0.1% BSA (Calbiochem, 126609), 1 μM GDP (Sigma, G-7127), 2.5% DMSO (Fluka, 41644), 50 pM ^35S-GTPγS (Amersham Biosciences, SJ1320). The pH is 7.4. Test compounds are dissolved and diluted in 100% DMSO and pre-incubated at room temperature for 30 min in 150 μl of the above assay buffer, in the absence of ^35S-GTPγS. After addition of 50 μl of ^35S-GTPγS, the assay is incubated for 1 h at rt. The assay is terminated by transfer of the reaction mixture to a Multiscreen plate (Millipore, MAHFC1H60) using a cell harvester from Packard Biosciences, and the plates are washed with ice-cold 10 mM Na2HPO4/NaH2PO4 (70%/30%), dried, sealed at the bottom and, after addition of 25 μl MicroScint20 (Packard Biosciences, order#6013621), sealed on the top. Membrane-bound ^35S-GTPγS is measured with a TopCount from Packard Biosciences.
EC50 is the concentration of agonist inducing 50% of the maximal specific ^35S-GTPγS binding. Specific binding is determined by subtracting non-specific binding from maximal binding. Maximal binding is the amount of cpm bound to the Multiscreen plate in the presence of 10 μM of S1P. Non-specific binding is the amount of binding in the absence of an agonist in the assay. […] The EC50 values were determined according to the method described above: […]
On the technique in general: Binding of GTPγS marks nucleotide exchange on a G protein.

Chain of recombinant human S1P1 receptor (P21453 whole entry): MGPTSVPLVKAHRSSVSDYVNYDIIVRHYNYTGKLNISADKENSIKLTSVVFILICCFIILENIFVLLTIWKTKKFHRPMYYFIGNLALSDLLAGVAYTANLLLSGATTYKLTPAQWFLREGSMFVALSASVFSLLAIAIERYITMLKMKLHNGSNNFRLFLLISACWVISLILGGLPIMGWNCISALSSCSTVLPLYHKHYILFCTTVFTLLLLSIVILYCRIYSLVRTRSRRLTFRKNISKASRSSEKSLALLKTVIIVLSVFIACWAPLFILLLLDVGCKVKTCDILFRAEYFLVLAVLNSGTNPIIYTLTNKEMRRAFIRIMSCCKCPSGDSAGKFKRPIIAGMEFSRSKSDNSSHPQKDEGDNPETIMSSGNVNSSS

In the case of `CCc1cc(-c2nnc(-c3sc(C)c4c3C[C@@H]3[C@H]4C3(C)C)o2)cc(C)n1` [Example 5, 2-Ethyl-6-methyl-4-[5-((1aS,5aR)-1,1,2-trimethyl-1,1a,5,5a-tetrahydro-3-thia-cyclopropa[a]pentalen-4-yl)-[1,3,4]oxadiazol-2-yl]-pyridine], in the experiment with circulating lymphocytes, the Lymphocyte counts is −77%.

Usually EC50 stands for the concentration giving half of the maximal effect. In the case of `CCc1cc(-c2noc(-c3sc(C)c4c3CC3C4C3(C)C)n2)cc(C)n1` (centres unmarked) [Example 14, 2-Ethyl-6-methyl-4-[5-(1,1,2-trimethyl-1,1a,5,5a-tetrahydro-3-thia-cyclopropa[a]pentalen-4-yl)-[1,2,4]oxadiazol-3-yl]-pyridine], the EC50 in experiment [1] came to 3.7 nM.

In the case of `CCc1cc(C=CC(=O)c2sc(C)c3c2CC2C3C2(C)C)cc(C)n1` [Example 1, 3-(2-Ethyl-6-methyl-pyridin-4-yl)-1-((1aS,5aR)-1,1,2-trimethyl-1,1a,5,5a-tetrahydro-3-thia-cyclopropa[a]pentalen-4-yl)-propenone], the EC50 in experiment [1] is 1.3 nM.

As for `Cc1cc(-c2nnc(-c3sc(C)c4c3C[C@@H]3[C@H]4C3(C)C)o2)cc(C)n1` [Example 8, 2,6-Dimethyl-4-[5-((1aS,5aR)-1,1,2-trimethyl-1,1a,5,5a-tetrahydro-3-thia-cyclopropa[a]pentalen-4-yl)-[1,3,4]oxadiazol-2-yl]-pyridine], in experiment [1], the EC50 came out at 3.4 nM.

Take `CCc1cc(CCC(=O)c2sc(CC)c3c2CCC(C)(C)C3)cc(C)n1` [Example 4, 1-(3-Ethyl-5,5-dimethyl-4,5,6,7-tetrahydro-benzo[c]thiophen-1-yl)-3-(2-ethyl-6-methyl-pyridin-4-yl)-propan-1-one]: the EC50 in experiment [1] stood at 4.6 nM.
